Where two headings read alike, the source gives them in different places.
System: recombinant NL4-3 virus (Renilla luciferase) in MT-2 cells
Test: HIV cell culture assay (antiviral activity, luciferase readout in infected MT-2 cells)
Type: cell-based
Conditions: Renilla
Summary of the method: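 Nef-deleted NL4-3 carrying Renilla luciferase, produced by 293T transfection, used to infect MT-2 cells for 4–5 days with serial compound dilutions. Live-cell luciferase signal read as infection marker; EC50 from exponential median-effect equation.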

[1] = NL43, read-out: Activity, antiviral activity class, recombinant NL4-3 Renilla luciferase virus in MT-2 cells
[2] = NL43, recombinant NL4-3 Renilla luciferase virus in MT-2 cells

Compound	EC50 [1] [nM]	EC50 [2] [nM]
CN(C(=O)[C@H](Cc1ccccc1)NC(=O)NS(=O)(=O)c1ccccc1)c1ccc(Cl)cc1 [Example 88]	100 to 1000	450
COc1cccc(N(C)C(=O)[C@H](Cc2ccccc2)NC(=O)NS(=O)(=O)c2ccccc2)c1 [Example 89]	100 to 1000	
Cc1cccc(N(C)C(=O)[C@H](Cc2ccccc2)NC(=O)NS(=O)(=O)c2ccccc2)c1 [Example 90]	100 to 1000	
CN(C(=O)[C@H](Cc1ccccc1)NC(=O)NS(=O)(=O)c1ccccc1)c1ccc(F)cc1 [Example 91]	100 to 1000	
COc1ccc(N(C)C(=O)[C@H](Cc2ccccc2)NC(=O)NS(=O)(=O)c2ccccc2)cc1 [Example 92]	100 to 1000	
CN(C(=O)[C@H](Cc1ccccc1)NC(=O)NS(=O)(=O)c1ccccc1)c1cccc(F)c1 [Example 93]	1000 to 10000	1590
CN(C(=O)[C@H](Cc1ccccc1)NC(=O)NS(=O)(=O)c1ccccc1)c1cccc2ccccc12 [Example 94, (S)—N-methyl-N-(naphthalen-1-yl)-3-phenyl-2-(3-(phenylsulfonyl)ureido)-propanamide]	10000 to 100000	
COc1ccccc1N(C)C(=O)[C@H](Cc1ccccc1)NC(=O)NS(=O)(=O)c1ccccc1 [Example 95, (S)—N-(2-methoxyphenyl)-N-methyl-3-phenyl-2-(3 (phenylsulfonyl)ureido)-propanamide]	1000 to 10000	
CCN(CC)CCN(C)C(=O)[C@H](Cc1ccccc1)NC(=O)NS(=O)(=O)c1ccccc1 [Example 96, (S)—N-(2-(diethylamino)ethyl)-N-methyl-3-phenyl-2-(3-(phenylsulfonyl)ureido)propanamide]		> 100000
Cc1nc(-c2ccc(CN(C)C(=O)[C@H](Cc3ccccc3)NC(=O)NS(=O)(=O)c3ccccc3)cc2)no1 [Example 97, (S)—N-methyl-N-(4-(5-methyl-1,2,4-oxadiazol-3-yl)benzyl)-3-phenyl-2-(3-(phenylsulfonyl)ureido)propanamide]	1000 to 10000	
CN(C(=O)[C@H](Cc1ccccc1)NC(=O)NS(=O)(=O)c1c(F)cccc1F)c1ccc2c(c1)OCO2 [Example 98, (S)—N-(benzo[d][1,3]dioxol-5-yl)-2-(3-((2,6-difluorophenyl)sulfonyl)ureido)-N-methyl-3-phenylpropanamide]	< 100	90
CN(C(=O)[C@H](Cc1ccccc1)NC(=O)NS(=O)(=O)c1cc(F)ccc1F)c1ccc2c(c1)OCO2 [Example 99, (S)—N-(benzo[d][1,3]dioxol-5-yl)-2-(3-((2,5-difluorophenyl)sulfonyl)ureido)-N-methyl-3-phenylpropanamide]	100 to 1000	150
CN(C(=O)[C@H](Cc1ccccc1)NC(=O)NS(=O)(=O)c1c(Cl)cccc1Cl)c1ccc2c(c1)OCO2 [Example 100, (S)—N-(benzo[d][1,3]dioxol-5-yl)-2-(3-((2,6-dichlorophenyl)sulfonyl)ureido)-N-methyl-3-phenylpropanamide]	< 100	
CN(C(=O)[C@H](Cc1ccccc1)NC(=O)NS(=O)(=O)Cc1ccccc1Cl)c1ccc2c(c1)OCO2 [Example 101, (S)—N-(benzo[d][1,3]dioxol-5-yl)-2-(3-((2-chlorobenzyl)sulfonyl)ureido)-N-methyl-3-phenylpropanamide]	100 to 1000	
CN(C(=O)[C@H](Cc1ccccc1)NC(=O)NS(=O)(=O)Cc1ccc(Cl)c(Cl)c1)c1ccc2c(c1)OCO2 [Example 102, (S)—N-(benzo[d][1,3]dioxol-5-yl)-2-(3-((3,4-dichlorobenzyl)sulfonyl)ureido)-N-methyl-3-phenylpropanamide]	100 to 1000	
CN(C(=O)[C@H](Cc1ccccc1)NC(=O)NS(=O)(=O)Cc1cccc(Cl)c1)c1ccc2c(c1)OCO2 [Example 103, (S)—N-(benzo[d][1,3]dioxol-5-yl)-2-(3-((3-chlorobenzyl)sulfonyl)ureido)-N-methyl-3-phenylpropanamide]	100 to 1000	
Cc1ccccc1CS(=O)(=O)NC(=O)N[C@@H](Cc1ccccc1)C(=O)N(C)c1ccc2c(c1)OCO2 [Example 104, (S)—N-(benzo[d][1,3]dioxol-5-yl)-N-methyl-2-(3-((2-methylbenzyl)sulfonyl)ureido)-3-phenylpropanamide]	100 to 1000	620
CN(C(=O)[C@H](Cc1ccccc1)NC(=O)NS(=O)(=O)Cc1ccc(C(F)(F)F)cc1)c1ccc2c(c1)OCO2 [Example 105, (S)—N-(benzo[d][1,3]dioxol-5-yl)-N-methyl-3-phenyl-2-(3-((4-(trifluoromethyl)benzyl)sulfonyl)ureido)propanamide]	100 to 1000	

Compound	EC50 [1] [nM]	EC50 [2] [nM]
CC(C)C1CC1S(=O)(=O)NC(=O)N[C@@H](Cc1ccccc1)C(=O)N(C)c1ccc2c(c1)OCO2 (stereo partly drawn) [Example 106, (2S)—N-(benzo[d][1,3]dioxol-5-yl)-2-(3-((2-isopropylcyclopropyl)sulfonyl)ureido)-N-methyl-3-phenylpropanamide]	100 to 1000	
CN(C(=O)[C@H](Cc1ccccc1)NC(=O)NS(=O)(=O)C1(Cc2ccccc2)CC1)c1ccc2c(c1)OCO2 [Example 107, (S)—N-(benzo[d][1,3]dioxol-5-yl)-2-(3-((1-benzylcyclopropyl)sulfonyl)ureido)-N-methyl-3-phenylpropanamide]	1000 to 10000	
COc1ccccc1S(=O)(=O)NC(=O)N[C@@H](Cc1ccccc1)C(=O)N(C)c1ccc2c(c1)OCO2 [Example 108, (S)—N-(benzo[d][1,3]dioxol-5-yl)-2-(3-((2-methoxyphenyl)sulfonyl)ureido)-N-methyl-3-phenylpropanamide]	100 to 1000	
CN(C(=O)[C@H](Cc1ccccc1)NC(=O)NS(=O)(=O)Cc1ccc(Cl)cc1)c1ccc2c(c1)OCO2 [Example 109, (S)—N-(benzo[d][1,3]dioxol-5-yl)-2-(3-((4-chlorobenzyl)sulfonyl)ureido)-N-methyl-3-phenylpropanamide]	100 to 1000	
CN(C(=O)[C@H](Cc1ccccc1)NC(=O)NS(=O)(=O)Cc1ccc(F)cc1)c1ccc2c(c1)OCO2 [Example 110, (S)—N-(benzo[d][1,3]dioxol-5-yl)-2-(3-((4-fluorobenzyl)sulfonyl)ureido)-N-methyl-3-phenylpropanamide]	100 to 1000	160
CN(C(=O)[C@H](Cc1ccccc1)NC(=O)NS(=O)(=O)C1CCCCC1)c1ccc2c(c1)OCO2 [Example 111, (S)—N-(benzo[d][1,3]dioxol-5-yl)-2-(3-(cyclohexylsulfonyl)ureido)-N-methyl-3-phenylpropanamide]	100 to 1000	
CCN(C(=O)[C@H](Cc1ccccc1)NC(=O)NS(=O)(=O)c1cccc(Br)c1)c1ccc(OC)cc1 [Example 112, (S)-2-(3-((3-bromophenyl)sulfonyl)ureido)-N-ethyl-N-(4-methoxyphenyl)-3-phenylpropanamide]	< 100	
CCN(C(=O)[C@H](Cc1ccccc1)NC(=O)NS(=O)(=O)c1ccccc1[N+](=O)[O-])c1ccc(OC)cc1 [Example 113, (S)—N-ethyl-N-(4-methoxyphenyl)-2-(3-((2-nitrophenyl)sulfonyl)ureido)-3-phenylpropanamide]	< 100	
CCN(C(=O)[C@H](Cc1ccccc1)NC(=O)NS(=O)(=O)c1ccccc1C(=O)OC)c1ccc(OC)cc1 [Example 114, (S)-methyl 2-(N-((1-(ethyl(4-methoxyphenyl)amino)-1-oxo-3-phenylpropan-2-yl)carbamoyl)sulfamoyl)benzoate]	1000 to 10000	1060
CCN(C(=O)[C@H](Cc1ccccc1)NC(=O)NS(=O)(=O)c1cccc(Br)c1C)c1ccc(OC)cc1 [Example 115, (S)-2-(3-((3-bromo-2-methylphenyl)sulfonyl)ureido)-N-ethyl-N-(4-methoxyphenyl)-3-phenylpropanamide]	< 100	
CCN(C(=O)[C@H](Cc1ccccc1)NC(=O)NS(=O)(=O)c1cccc2ccccc12)c1ccc(OC)cc1 [Example 116, (S)—N-ethyl-N-(4-methoxyphenyl)-2-(3-(naphthalen-1-ylsulfonyl)ureido)-3-phenylpropanamide]	< 100	
CCN(C(=O)[C@H](Cc1ccccc1)NC(=O)NS(=O)(=O)c1ccccc1F)c1ccc(OC)cc1 [Example 117, (S)—N-ethyl-2-(3-((2-fluorophenyl)sulfonyl)ureido)-N-(4-methoxyphenyl)-3-phenylpropanamide]	< 100	
CCN(C(=O)[C@H](Cc1ccccc1)NC(=O)NS(=O)(=O)c1c(F)cccc1F)c1ccc(OC)cc1 [Example 118, (S)-2-(3-((2,6-difluorophenyl)sulfonyl)ureido)-N-ethyl-N-(4-methoxyphenyl)-3-phenylpropanamide]	< 100	40
CCN(C(=O)[C@H](Cc1ccccc1)NC(=O)NS(=O)(=O)c1cccc(Cl)c1Cl)c1ccc(OC)cc1 [Example 119, (S)-2-(3-((2,3-dichlorophenyl)sulfonyl)ureido)-N-ethyl-N-(4-methoxyphenyl)-3-phenylpropanamide]	< 100	
CCN(C(=O)[C@H](Cc1ccccc1)NC(=O)NS(=O)(=O)c1cc(Br)ccc1C)c1ccc(OC)cc1 [Example 120, (S)-2-(3-((5-bromo-2-methylphenyl)sulfonyl)ureido)-N-ethyl-N-(4-methoxyphenyl)-3-phenylpropanamide]	100 to 1000	
CCN(C(=O)[C@H](Cc1ccccc1)NC(=O)NS(=O)(=O)c1cccc(-c2ccoc2)c1)c1ccc(OC)cc1 [Example 121, (S)—N-ethyl-2-(3-((3-(furan-3-yl)phenyl)sulfonyl)ureido)-N-(4-methoxyphenyl)-3-phenylpropanamide]	< 100	
CCN(C(=O)[C@H](Cc1ccccc1)NC(=O)NS(=O)(=O)c1cccc(-c2ccoc2)c1C)c1ccc(OC)cc1 [Example 122, (S)—N-ethyl-2-(3-((3-(furan-3-yl)-2-methylphenyl)sulfonyl)ureido)-N-(4-methoxyphenyl)-3-phenylpropanamide]	100 to 1000	
CCN(C(=O)[C@H](Cc1ccccc1)NC(=O)NS(=O)(=O)c1cc(-c2ccoc2)ccc1C)c1ccc(OC)cc1 [Example 123, (S)—N-ethyl-2-(3-((5-(furan-3-yl)-2-methylphenyl)sulfonyl)ureido)-N-(4-methoxyphenyl)-3-phenylpropanamide]	100 to 1000	660

From patent US10035760B2, “Inhibitors of human immunodeficiency virus replication” (priority 2013, dated 2018)
